Results taken from the supplement of paper PMC10307832.

Experiments:
Test in all cases: relative viability (nuclei count vs DMSO), 5 days (fraction); higher = more cells survive
[1] = compound: C[C@@H](C(=O)N[C@@H](C1CCCCC1)C(=O)N2CCC[C@H]2C(=O)N[C@@H]3[C@@H](CC4=CC=CC=C34)OCC#CC#CCO[C@@H]5CC6=CC=CC=C6[C@@H]5NC(=O)[C@@H]7CCCN7C(=O)[C@H](C8CCCCC8)NC(=O)[C@H](C)NC)NC [AZD5582] + COc1cc2c(Oc3ccc(NC(=O)C4(C(=O)Nc5ccc(F)cc5)CC4)cc3F)ccnc2cc1OCCCN1CCOCC1 [Foretinib] (partner 0.25 µM)
Summary of the method: (§1)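 Lung cancer cell lines in 1536-well plates were dosed by pin tool the day after seeding, either with one drug alone or with a fixed anchor-drug dose plus five library-drug doses (not always all listed) in √10 steps. After 5 days, cells were fixed and their nuclei stained in one step (final 0.05% Triton X-100, 1% formaldehyde, 1 ug/ml Hoechst), then counted on 4× images. Relative viability is the nuclei count in treated wells divided by that in vehicle wells. Values are medians of duplicate plates.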

[2] = compound: C[C@@H](C(=O)N[C@@H](C1CCCCC1)C(=O)N2CCC[C@H]2C(=O)N[C@@H]3[C@@H](CC4=CC=CC=C34)OCC#CC#CCO[C@@H]5CC6=CC=CC=C6[C@@H]5NC(=O)[C@@H]7CCCN7C(=O)[C@H](C8CCCCC8)NC(=O)[C@H](C)NC)NC [AZD5582] + C[C@@H](Oc1cc(-c2cnn(C3CCNCC3)c2)cnc1N)c1c(Cl)ccc(F)c1Cl [Crizotinib] (partner 1 µM)
Summary of the method: as §1

[3] = compound: Cn1nnc2c(C(N)=O)ncn2c1=O [Temozolomide] + CC(=O)Nc1cccc(-n2c(=O)n(C3CC3)c(=O)c3c(Nc4ccc(I)cc4F)n(C)c(=O)c(C)c32)c1 [Trametinib] (partner 0.02 µM)
Summary of the method: as §1

[4] = compound: Cn1nnc2c(C(N)=O)ncn2c1=O [Temozolomide] + CS(=O)(=O)N1CCN(Cc2cc3nc(-c4cccc5[nH]ncc45)nc(N4CCOCC4)c3s2)CC1 [Pictilisib] (partner 1 µM)
Summary of the method: as §1

Row | Cell Line | relative viability ([1]; first compound 0.001581 µM) | relative viability ([1]; first compound 0.005 µM) | relative viability ([1]; first compound 0.01581 µM) | relative viability ([1]; first compound 0.05 µM) | relative viability ([2]; first compound 0.001581 µM) | relative viability ([2]; first compound 0.005 µM) | relative viability ([2]; first compound 0.01581 µM) | relative viability ([2]; first compound 0.05 µM) | relative viability ([3]; first compound 0.6325 µM) | relative viability ([3]; first compound 2 µM) | relative viability ([3]; first compound 6.325 µM) | relative viability ([3]; first compound 20 µM) | relative viability ([4]; first compound 0.6325 µM) | relative viability ([4]; first compound 2 µM) | relative viability ([4]; first compound 6.325 µM) | relative viability ([4]; first compound 20 µM) | relative viability ([3]; first compound 0.2 µM) | relative viability ([4]; first compound 0.2 µM)
1 | H3255 | 0.868 | 0.796 | 0.741 | 0.772 | 0.825 | 0.712 | 0.743 | 0.756 | 0.62 | 0.656 | 0.63 | 0.214 | 0.539 | 0.422 | 0.38 | 0.0897 |  | 
2 | NCI-H1437 | 1.17 | 1.22 | 1.24 | 1.16 | 0.856 | 0.713 | 0.858 | 0.957 | 0.544 | 0.561 | 0.594 | 0.565 | 0.539 | 0.502 | 0.521 | 0.44 | 0.539 | 0.474
3 | NCI-H2347 | 0.688 | 0.736 | 0.557 | 0.794 | 0.657 | 0.601 | 0.509 | 0.701 | 0.291 | 0.28 | 0.289 | 0.244 | 0.863 | 0.861 | 0.649 | 0.502 | 0.26 | 0.624
4 | SK-LU-1 | 0.794 | 0.772 | 0.843 | 0.472 | 0.365 | 0.272 | 0.91 | 0.152 | 0.487 | 0.44 | 0.382 | 0.361 | 0.62 | 0.544 | 0.295 | 0.281 | 0.534 | 0.688
5 | NCI-H2087 | 0.957 | 1.24 | 1.05 | 1.16 | 0.689 | 0.911 | 0.692 | 0.937 | 0.213 | 0.255 | 0.204 | 0.172 | 0.858 | 0.927 | 0.895 | 0.851 | 0.209 | 1.08
